Source: PMC10895678 (Journal of Medicinal Chemistry, 2024)
Converted amounts (≈) assume the structure as drawn. Where two headings read alike, the source gives them in different places.

What was measured:
[1] = tested on: M. smegmatis; experiment: MIC determination, resazurin end point assay, M. smegmatis; type: cell-based, Mycobacterium smegmatis; conditions: Mycolicibacterium smegmatis; for MIC50: read-out: MIC50 smegmatis
[2] = tested on: M. bovis BCG; experiment: microbe, parasite or virus in culture; type: cell-based, Mycobacterium bovis BCG; conditions: for MIC99 / MIC50: Mycobacterium tuberculosis variant bovis BCG, BCG; for MIC50: read-out: MIC50 BCG; for increase in activity against M. bovis BCG compared to BGAz-001: fold, from MIC99
[3] = tested on: M. bovis BCG; experiment: microbe, parasite or virus in culture; type: cell-based; conditions: Mycobacterium tuberculosis variant bovis BCG, read-out: BCG MBC
[4] = tested on: M. tb H37Ra::pTYOK; type: cell-based, Mycobacterium tuberculosis; conditions: autoluminescent strain, >50% RLU inhibition on day 3
[5] = tested on: M. tuberculosis 1192/015; experiment: microbe, parasite or virus in culture; type: cell-based; conditions: Mycobacterium tuberculosis, 1192/015, read-out: M. tb 1192/015 MIC99
[6] = Kinetic solubility (turbidimetry); type: physicochemical; conditions: PBS pH 7.4, 1% DMSO, 25 °C
[7] = Mouse microsomal clearance; type: in vitro ADME; conditions: 0.5 mg/mL mouse microsomes
Procedure: Compounds were solubilized (10 mM in DMSO). 1 μM of BGAz compound was incubated with 0.5 mg/mL mouse microsomes in the presence or absence of the Phase 1 cofactor NADPH (1 mM) at 37 °C for 0, 5, 10, 15, and 30 min. The disappearance of the BGAz compound was assessed by LC-MS/MS. All experiments were performed with two replicates per compound and were validated by the inclusion of up to three species-specific control compounds. Data output consists of mean intrinsic clearance (CLint) and half-life (t1/2) measurements.

[8] = Caco-2 permeability and efflux; type: in vitro ADME; conditions: human, pH 7.4, 2 h; for efflux ratio at 2 h, 10 μM: Caco-2, pH 7.4, 10 μM; for Papp B→A at 2 h, 10 μM: Caco-2, read-out: Caco-2 B-A Paap
Procedure: Compounds were solubilized (10 mM in DMSO), and the CacoReady Kit from ReadyCell S.L. (Barcelona, Spain) was used to determine compound permeability. Differentiated and polarized Caco-2 cells (21-day system) were plated on a 96-transwell permeable system as a single monolayer to allow for automated high throughput screening of compounds, and 10 μM BGAz compound was added to the system in HBSS buffer (pH 7.4) and incubated for 2 h at 37 °C in a CO2 incubator. Lucifer yellow was used as a cell monolayer integrity marker. Drug transport was assessed in both directions [apical to basolateral (A-B) and basolateral to apical (B-A)] across the cell monolayer. […] The BGAz compound concentrations were quantified using a calibration curve following analysis by LC-MS/MS, and the apparent permeability coefficient (Papp) and efflux ratio of the compound across the monolayer were calculated. The efflux ratio is used as an indicator of active efflux. The permeability coefficient (Papp) was calculated from the following equation: [drawing 2] 2 where dQ/dt is the amount of compound in the basal (A-B) or apical (B-A) compartment as a function of time (nmol/s). C0 is the initial concentration in the donor (apical or basal) compartment (Mean of T = 0) (nmol/mL) and A is the area of the transwell (cm^2).
The efflux ratio was then calculated as [drawing 3] 3
All experiments were performed in triplicate, and the MDR1 efflux markers Digoxin, quinidine, and […] were used as positive controls.

[9] = target: T1, CYP1A2 (Homo sapiens, UniProt P05177); experiment: Cytochrome P450 inhibition, CYP1A2; type: in vitro ADME; conditions: human liver microsomes
T1 construct: from tissue; host or cells: human liver microsomes
T1 sequence (P05177 1-516): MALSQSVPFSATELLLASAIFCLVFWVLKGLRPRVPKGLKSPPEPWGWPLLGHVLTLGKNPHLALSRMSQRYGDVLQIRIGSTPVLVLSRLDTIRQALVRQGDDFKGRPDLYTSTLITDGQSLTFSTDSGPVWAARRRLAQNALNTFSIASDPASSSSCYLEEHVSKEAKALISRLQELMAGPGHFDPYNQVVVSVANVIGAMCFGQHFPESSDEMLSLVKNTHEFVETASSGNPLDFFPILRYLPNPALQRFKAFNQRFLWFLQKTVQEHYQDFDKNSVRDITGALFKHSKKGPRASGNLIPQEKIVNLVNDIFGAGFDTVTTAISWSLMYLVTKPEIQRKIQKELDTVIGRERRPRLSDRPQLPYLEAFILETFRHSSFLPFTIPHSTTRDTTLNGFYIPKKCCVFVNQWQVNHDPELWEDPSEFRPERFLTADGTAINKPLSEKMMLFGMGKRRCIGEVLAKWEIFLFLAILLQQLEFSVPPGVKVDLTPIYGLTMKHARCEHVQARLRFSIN
Procedure: Compounds were solubilized to 10 mM in DMSO. The BGAz compounds were incubated at concentrations of 0.003, 0.009, 0.03, 0.08, 0.25, 0.74, 2.2, 6.7, and 20 μM with CYP1A2, CYP2C9, CYP2C19, and CYP2D6 at 37 °C in the presence of the drug-like probe substrate […] the Phase 1 cofactor NADPH (1 mM). The formation of metabolites of the drug-like probe substrates in the absence and presence of the BGAz compound was monitored by LC-MS/MS, and the IC50 value was determined. All assays had two replicates per compound and included a positive control inhibitor.

[10] = HepG2 mitochondrial dysfunction (Glu/Gal cytotoxicity, MTT); type: cell-based; conditions: human, HepG2 cells, 24 h, MTT
Procedure: Compounds were solubilized to 30 mM in DMSO. The BGAz compounds were added to the HepG2 cell model in a 96-well microplate in half log dilutions from 100–0.0003 μM (final DMSO concentration 0.3%) using both glucose (DMEM consisting of 25 mM glucose) and galactose (DMEM consisting of 10 mM galactose) media. The compounds were incubated with the cell line for 24 h at 37 °C in a humidified CO2 tissue culture incubator, followed by cell viability staining with MTT (3-(4,5-dimethylthiazol-2-yl)-2.5-diphenyltetrazolium bromide) conversion to the Formazan product, determined by absorbance measurement. The cell viability IC50 was determined in HepG2 glucose and metabolism-modified HepG2 galactose, and the fold change difference between the Glu/Gal IC50 was determined. All experiments were performed in duplicate with the mitochondrial toxicity controls rotenone and Antimycin A and the cytotoxin control tamoxifen.

[11] = tested on: C. glutamicum; experiment: MIC, resazurin assay, C. glutamicum wild type; type: cell-based, Corynebacterium glutamicum; conditions: for C. glutamicum MIC: modified Gompertz function; for MIC50 C. glutamicum / MIC99 C. glutamicum: supplementary MIC data file
[12] = tested on: C. glutamicum pks13; experiment: MIC, resazurin assay, C. glutamicum pks13 deletion mutant; type: cell-based, Corynebacterium glutamicum; conditions: modified Gompertz function
[13] = resazurin end point assay, modified Gompertz function, three biological replicates, read-out: M. smeg. MIC99
[14] = supplementary MIC data file, read-out: MIC99 smegmatis
[15] = preincubated 30 min prior to NADPH, read-out: CYP1A2 [pre-inc] IC50
[16] = without pre-incubation, read-out: CYP1A2 IC50
[17] = galactose medium, read-out: HepG2 Cytotoxicity IC50, Gal
[18] = glucose medium, read-out: HepG2 Cytotoxicity IC50, Glu

## CNCC1CC(c2ccc(OC(F)(F)F)cc2)N1Cc1ccccc1OC(F)(F)F (stereo not shown) [BGAz-005]
[1]; [13]
  MIC99: 24 µM (≈ 10.4 µg/mL)
[1]; supplementary MIC data file
  MIC50: 9 µM (≈ 3.91 µg/mL)
[1]; [14]
  MIC99: 24 µM (≈ 10.4 µg/mL)
[2]; read-out: BCG MIC99
  MIC99: 21 µM (≈ 9.12 µg/mL)
[2]
  MIC50: 20 µM (≈ 8.69 µg/mL)
  increase in activity against M. bovis BCG compared to BGAz-001: approximately three-fold increase
[2]; read-out: MIC99 BCG
  MIC99: 21 µM (≈ 9.12 µg/mL)
[3]
  MBC: 12 to 25 µM (≈ 5.21 to 10.9 µg/mL)
[4]
  M. tb H37Ra::pTY OK MIClux50: 4.5 μM
[5]
  MIC99: 23.2 µM (≈ 10.1 µg/mL)
[6]
  solubility kinetic at 5 min: 117 µM (≈ 50.8 µg/mL)
[7]
  microsomal CLint at 1 μM: 36 µL/min/mg
[8]
  efflux ratio at 2 h, 10 μM: < 1
  Papp B→A at 2 h, 10 μM: 1.4 ×10⁻⁶ cm/s
[9]; [15]
  IC50: > 20 µM
[9]; [16]
  IC50: > 20 µM
[10]; [17]
  IC50 at 24 h: 23 µM
[10]; [18]
  IC50 at 24 h: 21 µM
[11]
  C. glutamicum MIC: 12 µM
[12]
  C. glutamicum pks13 MIC: 10

## FC(F)(F)Oc1ccc(C2CC(CN3CCCC3)N2Cc2ccccc2OC(F)(F)F)cc1 (stereo not shown) [BGAz-002]
[1]
  MIC50: 49 µM (≈ 23.2 µg/mL)
[1]; read-out: MIC99 smegmatis
  MIC99: 62 µM (≈ 29.4 µg/mL)
[1]; [13]
  MIC99: 32 µM (≈ 15.2 µg/mL)
[2]; read-out: BCG MIC99
  MIC99: 15 µM (≈ 7.12 µg/mL)
[2]
  MIC50: 14 µM (≈ 6.64 µg/mL)
  increase in activity against M. bovis BCG compared to BGAz-001: approximately three- to four-fold increase
[2]; read-out: MIC99 BCG
  MIC99: 15 µM (≈ 7.12 µg/mL)
[3]
  MBC: 12 to 25 µM (≈ 5.69 to 11.9 µg/mL)
[4]
  M. tb H37Ra::pTY OK MIClux50: 9.2 μM
[5]
  MIC99: 37.8 µM (≈ 17.9 µg/mL)
[6]
  solubility kinetic at 5 min: 57 µM (≈ 27 µg/mL)
[7]
  microsomal CLint at 1 μM: 166 µL/min/mg
[8]
  efflux ratio at 2 h, 10 μM: 1.2
  Papp B→A at 2 h, 10 μM: 2.8 ×10⁻⁶ cm/s
[9]; [15]
  IC50: > 20 µM
[9]; [16]
  IC50: > 20 µM
[10]; [17]
  IC50 at 24 h: 65 µM
[10]; [18]
  IC50 at 24 h: 38 µM
[11]
  C. glutamicum MIC: 50 µM
  MIC50 C. glutamicum: 43 µM (≈ 20.4 µg/mL)
  MIC99 C. glutamicum: 49 µM (≈ 23.2 µg/mL)
[12]
  C. glutamicum pks13 MIC: 50

## Brc1cc(Br)cc(C2CC(CN3CCCC3)N2Cc2ccccc2Br)c1 (stereo not shown) [BGAz-004]
[1]; [13]
  MIC99: 14 µM (≈ 7.6 µg/mL)
[1]; supplementary MIC data file
  MIC50: 6 µM (≈ 3.26 µg/mL)
[1]; [14]
  MIC99: 14 µM (≈ 7.6 µg/mL)
[2]; read-out: BCG MIC99
  MIC99: 14 µM (≈ 7.6 µg/mL)
[2]
  MIC50: 15 µM (≈ 8.15 µg/mL)
  increase in activity against M. bovis BCG compared to BGAz-001: approximately three- to four-fold increase
[2]; read-out: MIC99 BCG
  MIC99: 14 µM (≈ 7.6 µg/mL)
[3]
  MBC: 12 to 25 µM (≈ 6.52 to 13.6 µg/mL)
[4]
  M. tb H37Ra::pTY OK MIClux50: 7.03 μM
[5]
  MIC99: 15.4 µM (≈ 8.36 µg/mL)
[6]
  solubility kinetic at 5 min: 9 µM (≈ 4.89 µg/mL)
[7]
  microsomal CLint at 1 μM: 192 µL/min/mg
[8]
  efflux ratio at 2 h, 10 μM: 1.4
  Papp B→A at 2 h, 10 μM: 0.5 ×10⁻⁶ cm/s
[9]; [15]
  IC50: > 20 µM
[9]; [16]
  IC50: > 20 µM
[10]; [17]
  IC50 at 24 h: > 100 µM
[10]; [18]
  IC50 at 24 h: > 100 µM
[11]
  C. glutamicum MIC: 20 µM
  MIC50 C. glutamicum: 12 µM (≈ 6.52 µg/mL)
  MIC99 C. glutamicum: 12 µM (≈ 6.52 µg/mL)
[12]
  C. glutamicum pks13 MIC: 10
